According to patent US20230295087A1, “AGONISTS OF ROR GAMMAt” (BRISTOL-MYERS SQUIBB COMPANY, priority 2019, published 2023):

Target: T1, human RORgT (Homo sapiens, UniProt P51449)
T1 construct: expressed in transfected cells
T1 sequence (P51449 267-516): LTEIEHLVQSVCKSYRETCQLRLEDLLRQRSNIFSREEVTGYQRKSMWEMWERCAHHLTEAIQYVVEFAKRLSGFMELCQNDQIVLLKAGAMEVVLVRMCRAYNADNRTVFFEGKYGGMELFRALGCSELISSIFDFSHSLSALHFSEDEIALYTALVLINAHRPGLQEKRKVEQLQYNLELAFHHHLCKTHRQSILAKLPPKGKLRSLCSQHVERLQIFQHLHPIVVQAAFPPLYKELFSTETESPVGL
Test: RORgT Gal4 Luciferase Reporter Gene Assay
Format: cell-based
Details: engineered Jurkat cells overexpressing RORgT (LBD or full length) fused with Gal4 Luc reporter; 18 hours at 37° C.; luminescence
Method in brief: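 Jurkat cells expressing Gal4 Luc with either RORgT LBD (aa267-516) or full-length human RORgT, 10,000 cells/well, treated with compound (40 µM to 0.67 nM final, 3-fold dilutions) for 18 h at 37° C. Steady-Glo luminescence read; inhibition of constitutive activity as % signal-window reduction relative to a control compound.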

| EC50 | Structure (SMILES) |
| --- | --- |
| 17 nM | CS(=O)(=O)CC(=O)N1CC[C@@]2(S(=O)(=O)c3ccccc3)c3ccc(OCc4c(Cl)cccc4Cl)cc3CC[C@@H]12 [Example 69, 1-[(3aR,9bR)-9b-(benzenesulfonyl)-7-[(2,6-dichlorophenyl)methoxy]-1H,2H,3H,3aH,4H,5H,9bH-benzo[e]indol-3-yl]-2-methanesulfonylethan-1-one] |
| 8.7 nM | O=C(C1CCS(=O)(=O)C1)N1CC[C@@]2(S(=O)(=O)c3ccc(F)cc3)c3ccc(OCc4cc(Cl)ccc4Cl)cc3CC[C@@H]12 (stereo partly drawn) [Example 199, 3-[(3aR,9bR)-7-[(2,5-dichlorophenyl)methoxy]-9b-(4-fluorobenzenesulfonyl)-1H,2H,3H,3aH,4H,5H,9bH-benzo[e]indole-3-carbonyl]-1λ^6-thiolane-1,1-dione] |
| 62 nM | O=C(C1CCS(=O)(=O)N1)N1CC[C@@]2(S(=O)(=O)c3ccccc3)c3ccc(OCc4c(Cl)cccc4Cl)cc3CC[C@@H]12 (stereo partly drawn) [Example 63, 3-[(3aR,9bR)-9b-(benzenesulfonyl)-7-[(2,6-dichlorophenyl)methoxy]-1H,2H,3H,3aH,4H,5H,9bH-benzo[e]indole-3-carbonyl]-1λ^6,2-thiazolidine-1,1-dione] |
| 846 nM | CN1CCCC(C(=O)N2CC[C@@]3(S(=O)(=O)c4ccccc4)c4ccc(OCc5c(Cl)cccc5Cl)cc4CC[C@@H]23)C1 (stereo partly drawn) [Example 97, 3-[(3aR,9bR)-9b-(benzenesulfonyl)-7-[(2,6-dichlorophenyl)methoxy]-1H,2H,3H,3aH,4H,5H,9bH-benzo[e]indole-3-carbonyl]-1-methylpiperidine] |
| 3.9 nM | CN1C[C@@H](C(=O)N2CC[C@@]3(S(=O)(=O)c4ccc(F)cc4)c4ccc(OCc5c(F)cccc5C(F)(F)F)cc4CC[C@@H]23)NC1=O [Example 30, (4S)-4-[(3aR,9bR)-7-{[2-fluoro-6-(trifluoromethyl)phenyl]methoxy} -9b-(4-fluorobenzenesulfonyl)-1H,2H,3H,3aH,4H,5H,9bH-benzo[e]indole-3-carbonyl]-1-methylimidazolidin-2-one] |
| 8.1 nM | NC(=O)N1CCC(C(=O)N2CC[C@@]3(S(=O)(=O)c4ccc(F)cc4)c4ccc(CCc5c(Cl)cccc5Cl)cc4CC[C@@H]23)CC1 [Example 162, 4-[(3aR,9bR)-7-[2-(2,6-dichlorophenyl)ethyl]-9b-(4-fluorobenzenesulfonyl)-1H,2H,3H,3aH,4H5H,9bH-benzo[e]indole-3-carbonyl]piperidine-1-carboxamide] |
| 16 nM | CC(=O)N1CCC(C(=O)N2CC[C@@]3(S(=O)(=O)c4ccccc4)c4ccc(OCc5c(F)cccc5Cl)cc4CC[C@@H]23)CC1 [Example 136, 1-{4-[(3aR,9bR)-9b-(benzenesulfonyl)-7-[(2-chloro-6-fluorophenyl)methoxy]-1H,2H,3H,3aH,4H,5H,9bH-benzo[e]indole-3-carbonyl]piperidin-1-yl}ethan-1-one] |
| 168 nM | CS(=O)(=O)CC(=O)N1CC[C@@]2(S(=O)(=O)c3ccc(F)cc3)c3ccc(OCc4c(F)cc(F)cc4Cl)cc3CC[C@@H]12 [Example 217, 1-[(3aR,9bR)-7-[(2-chloro-4,6-difluorophenyl)methoxy]-9b-(4-fluorobenzenesulfonyl)-1H,2H,3H,3aH,4H,5H,9bH-benzo[e]indol-3-yl]-2-methanesulfonylethan-1-one] |
| 9.7 nM | O=C(O)[C@H]1CC[C@H](C(=O)N2CC[C@@]3(S(=O)(=O)c4ccc(F)cc4)c4ccc(OCc5c(Cl)cccc5Cl)cc4CC[C@@H]23)CC1 [Example 121, (1r,4r)-4-[(3aR,9bR)-7-[(2,6-dichlorophenyl)methoxy]-9b-(4-fluorobenzenesulfonyl)-1H,2H,3H,3aH,4H,5H,9bH-benzo[e]indole-3-carbonyl]cyclohexane-1-carboxylic acid] |
| 8.6 nM | O=C(C1CCS(=O)(=O)CC1)N1CC[C@@]2(S(=O)(=O)c3ccccc3)c3ccc(OCc4c(F)ccc(F)c4Cl)cc3CC[C@@H]12 [Example 131, 4-[(3aR,9bR)-9b-(benzenesulfonyl)-7-[(2-chloro-3,6-difluorophenyl)methoxy]-1H,2H,3H,3aH,4H,5H,9bH-benzo[e]indole-3-carbonyl]-1λ^6-thiane-1,1-dione] |
| 51 nM | O=C(O)[C@H]1CC[C@H](C(=O)N2CC[C@@]3(S(=O)(=O)c4ccc(F)cc4)c4ccc(Oc5cccnc5F)cc4CC[C@@H]23)CC1 [Example 116, (1r,4r)-4-[(3aR,9bR)-9b-(4-fluorobenzenesulfonyl)-7-[(2-fluoropyridin-3-yl)oxy]-1H,2H,3H,3aH,4H,5H,9bH-benzo[e]indole-3-carbonyl]cyclohexane-1-carboxylic acid] |
| 957 nM | O=C1CCCN1CCC(=O)N1CC[C@@]2(S(=O)(=O)c3ccccc3)c3ccc(OCc4c(Cl)cccc4Cl)cc3CC[C@@H]12 [Example 76, 1-{3-[(3aR,9bR)-9b-(benzenesulfonyl)-7-[(2,6-dichlorophenyl)methoxy]-1H,2H,3H,3aH,4H,5H,9bH-benzo[e]indol-3-yl]-3-oxopropyl}pyrrolidin-2-one] |
| 4.1 nM | O=C(C1CCS(=O)(=O)CC1)N1CC[C@@]2(S(=O)(=O)c3ccc(F)cc3)c3ccc(Oc4ccccc4)cc3CC[C@@H]12 [Example 36] |
| 5.6 nM | O=C(N1CC[C@@]2(S(=O)(=O)c3ccc(F)cc3)c3ccc(OCc4ccc(F)cc4Cl)cc3CC[C@@H]12)C1(O)CCS(=O)(=O)CC1 [Example 104, 4-[(3aR,9bR)-7-[(2-chloro-4-fluorophenyl)methoxy]-9b-(4-fluorobenzenesulfonyl)-1H,2H,3H,3aH,4H,5H,9bH-benzo[e]indole-3-carbonyl]-4-hydroxy-1λ^6-thiane-1,1-dione] |
| 5.5 nM | O=C(N1CC[C@@]2(S(=O)(=O)c3ccc(F)cc3)c3ccc(OCc4c(F)cccc4Cl)cc3CC[C@@H]12)C1(O)CCS(=O)(=O)CC1 [Example 16, 4-[(3aR,9bR)-7-[(2-chloro-6-fluorophenyl)methoxy]-9b-(4-fluorobenzenesulfonyl)-1H,2H,3H,3aH,4H,5H,9bH-benzo[e]indole-3-carbonyl]-4-hydroxy-1λ^6-thiane-1,1-dione] |
| 19 nM | NC(=O)N1CCC(C(=O)N2CC[C@@]3(S(=O)(=O)c4ccc(F)cc4)c4ccc(OCc5ccc(F)cc5Cl)cc4CC[C@@H]23)CC1 [Example 198, 4-[(3aR,9bR)-7-[(2-chloro-4-fluorophenyl)methoxy]-9b-(4-fluorobenzenesulfonyl)-1H,2H,3H,3aH,4H,5H,9bH-benzo[e]indole-3-carbonyl] piperidine-1-carboxamide] |
| 3.8 nM | O=C(CC1CCS(=O)(=O)C1)N1CC[C@@]2(S(=O)(=O)c3ccc(F)cc3)c3ccc(OCc4c(F)cccc4Cl)cc3CC[C@@H]12 (stereo partly drawn) [Example 15, 3-{2-[(3aR,9bR)-7-[(2-chloro-6-fluorophenyl)methoxy]-9b-(4-fluorobenzenesulfonyl)-1H,2H,3H,3aH,4H,5H,9bH-benzo[e]indol-3-yl]-2-oxoethyl}-1λ^6-thiolane-1,1-dione] |
| 37 nM | COC(=O)[C@H]1CC[C@H](C(=O)N2CC[C@@]3(S(=O)(=O)c4ccc(F)cc4)c4ccc(OCc5c(Cl)cccc5Cl)cc4CC[C@@H]23)CC1 [Example 169, methyl(1r,4r)-4-[(3aR,9bR)-7-[(2,6-dichlorophenyl)methoxy]-9b-(4-fluorobenzenesulfonyl)-1H,2H,3H,3aH,4H,5H,9bH-benzo[e]indole-3-carbonyl]cyclohexane-1-carboxylate] |
| 127 nM | NS(=O)(=O)CC(=O)N1CC[C@@]2(S(=O)(=O)c3ccc(F)cc3)c3ccc(OCc4c(Cl)cccc4Cl)cc3CC[C@@H]12 [Example 122, 2-[(3aR,9bR)-7-[(2,6-dichlorophenyl)methoxy]-9b-(4-fluorobenzenesulfonyl)-1H,2H,3H,3aH,4H,5H,9bH-benzo[e]indol-3-yl]-2-oxoethane-1-sulfonamide] |
| 256 nM | O=C1NC(C(=O)N2CC[C@@]3(S(=O)(=O)c4ccccc4)c4ccc(OCc5c(Cl)cccc5Cl)cc4CC[C@@H]23)CO1 (stereo partly drawn) [Example 65, 4-[(3aR,9bR)-9b-(benzenesulfonyl)-7-[(2,6-dichlorophenyl)methoxy]-1H,2H,3H,3aH,4H,5H,9bH-benzo[e]indole-3-carbonyl]-1,3-oxazolidin-2-one] |
| 272 nM | O=C(O)C1CCC(C(=O)N2CC[C@@]3(S(=O)(=O)c4ccccc4)c4ccc(OCc5c(Cl)cccc5Cl)cc4CC[C@@H]23)CC1 (stereo partly drawn) [Example 66, 4-[(3aR,9bR)-9b-(benzenesulfonyl)-7-[(2,6-dichlorophenyl)methoxy]-1H,2H,3H,3aH,4H,5H,9bH-benzo[e]indole-3-carbonyl]cyclohexane-1-carboxylic acid] |
| 9.5 nM | O=C(C1CCS(=O)(=O)CC1)N1CC[C@@]2(S(=O)(=O)c3ccccc3)c3ccc(OCc4c(F)cccc4C(F)(F)F)cc3CC[C@@H]12 [Example 132, 4-[(3aR,9bR)-9b-(benzenesulfonyl)-7-{[2-fluoro-6-(trifluoromethyl)phenyl]methoxy}-1H,2H,3H,3aH,4H,5H,9bH-benzo[e]indole-3-carbonyl]-1λ^6-thiane-1,1-dione] |
| 4.9 nM | O=C(C1CCS(=O)(=O)C1)N1CC[C@@]2(S(=O)(=O)c3ccc(F)cc3)c3ccc(OCc4cc(F)c(F)cc4Cl)cc3CC[C@@H]12 (stereo partly drawn) [Example 213, 3-[(3aR,9bR)-7-[(2-chloro-4,5-difluorophenyl)methoxy]-9b-(4-fluorobenzenesulfonyl)-1H,2H,3H,3aH,4H,5H,9bH-benzo[e]indole-3-carbonyl]-1λ^6-thiolane-1,1-dione] |
